Patent publication US20140128352A1, “COMPOUNDS AND METHODS FOR MODULATING MITOCHONDRIAL METABOLISM AND REACTIVE OXYGEN SPECIES PRODUCTION” (Buck Institute for Research on Aging, priority 2012, published 2014)
Like-named read-outs stand apart in the source and are kept apart here.

Assays:
[1] = test system: ubiquinone binding site of complex I (IQ); experiment: High-throughput screen: ROS production from ubiquinone binding site of complex I (IQ), isolated skeletal muscle mitochondria; assay type: biochemical, rat; settings: percent change in ROS from DMSO controls
Experimental: Skeletal muscle mitochondria were isolated from 5-8 week old female Wistar rats (Harlan Laboratories). Minced muscle was homogenized in buffer containing bacterial protease Type VIII prior to differential centrifugation to separate mitochondria from other tissue components. Unless otherwise stated, freshly isolated muscle mitochondria were assayed in buffer containing 120 mM KCl, 5 mM HEPES, 1 mM EGTA, 0.3% (w/v) bovine serum albumin. Where indicated, CaCl2 was added to yield a final free concentration of 250 nM calcium at pH 7.0 at 37° C.
Compounds (10 mM in DMSO) were randomly selected from a library of 24,000 compounds obtained from ChemBridge and curated by the lab of Robert Hughes at the Buck Institute. Master screening plates were prepared using a Biomek FX liquid handling workstation (Beckman) to transfer 1 μL of each compound into individual wells on 96-well storage plates (80 compounds per plate). Master plates were sealed with foil and stored at −80° C. Just prior to use, plates were brought to room temperature and diluted 300-fold with standard buffer (13.3X=33.3 μM). To monitor the performance of each assay throughout screening and to provide intra-plate normalization reference points, DMSO negative controls and known mitochondrial inhibitor positive controls were included on each Master compound plate.
Total amounts of superoxide and H2O2 production were determined fluorometrically as H2O2, without distinguishing between them, in the presence of exogenous superoxide dismutase (25 units/mL final), horseradish peroxidase (1 unit/mL final), and Amplex UltraRed (25 μM final) as described (Affourtit, C. et al. (2012) Measurement of proton leak and electron leak in isolated mitochondria. Methods Mol. Biol. 810: 165-82). Just prior to use, a bulk 3.3X solution was made in standard buffer and distributed into a 2 mL deep well 96-well transfer plate.
To assess the effects of a compound on ROS production from the ubiquinone binding site of complex I (IQ), Start Solution containing 5 mM succinate was distributed into standard 96-well transfer plates. A Biomek FX workstation was programmed to dispense solutions into black 96-well assay plates. Solutions were dispensed to all assay plates in the following order: ROS Detection solution described in Example 3, Mitochondria solution described in Example 1 to a final concentration of 0.1 mg/ml, and Compound dilutions described in Example 2. Duplicate assay plates were made and each was initiated by the addition of 3.3X Start solution containing 5 mM succinate. Plates were incubated in the dark at room temperature for 30-40 minutes before acquiring endpoint fluorescence using a Victor 3V plate reader (Perkin Elmer) equipped with 550/590 nm excitation/emission filters.
The fluorescence values in each well were scaled as the percent change from the intra-plate DMSO controls with the appropriate inhibitor positive controls defined as −100%. Following initial scaling, intra-plate normalized values were subjected to Tukey's two-way median polish to remove row and column dependent positional effects (Malo et al, 2006).

[2] = target: T1, flavin binding site of complex I (IF) (Rattus norvegicus, UniProt Q5XIH3); experiment: High-throughput screen: ROS production from flavin binding site of complex I (IF); assay type: biochemical
T1 construct: freshly isolated muscle mitochondria were assayed; from tissue; host or cells: rat skeletal muscle mitochondria (Wistar, Harlan Laboratories)

[3] = target: T2, outer ubiquinone binding site of complex III (IIIQO) (Rattus norvegicus, UniProt P00159+P20788); experiment: High-throughput screen: ROS production from outer ubiquinone binding site of complex III (IIIQO); assay type: biochemical; settings: percent change in ROS from DMSO controls
T2 construct: freshly isolated muscle mitochondria were assayed; from tissue; host or cells: rat skeletal muscle mitochondria (Wistar, Harlan Laboratories)

[4] = target: T3, succinate dehydrogenase/complex II (SDH) (Rattus norvegicus, UniProt P21913+Q641Z9+Q6PCT8+Q920L2); experiment: High-throughput screen: ROS production from succinate dehydrogenase/complex II (SDH); assay type: biochemical; settings: for inhibition at 2.5 µM: Table 7
T3 construct: freshly isolated muscle mitochondria were assayed; from tissue; host or cells: rat skeletal muscle mitochondria (Wistar, Harlan Laboratories)

[5] = target: T4, glycerol-3-phosphate dehydrogenase (GPDH) (Rattus norvegicus, UniProt P35571); experiment: High-throughput screen: ROS production from glycerol-3-phosphate dehydrogenase (GPDH); assay type: biochemical; design: inhibition: dose or concentration left out as unconfirmed; settings: for inhibition: Table 7
T4 construct: The activity of GPDH in intact mitochondria (0.3 mg/mL) was measured; from tissue; host or cells: rat skeletal muscle mitochondria (Wistar, Harlan Laboratories)
T4 sequence (P35571 43-727): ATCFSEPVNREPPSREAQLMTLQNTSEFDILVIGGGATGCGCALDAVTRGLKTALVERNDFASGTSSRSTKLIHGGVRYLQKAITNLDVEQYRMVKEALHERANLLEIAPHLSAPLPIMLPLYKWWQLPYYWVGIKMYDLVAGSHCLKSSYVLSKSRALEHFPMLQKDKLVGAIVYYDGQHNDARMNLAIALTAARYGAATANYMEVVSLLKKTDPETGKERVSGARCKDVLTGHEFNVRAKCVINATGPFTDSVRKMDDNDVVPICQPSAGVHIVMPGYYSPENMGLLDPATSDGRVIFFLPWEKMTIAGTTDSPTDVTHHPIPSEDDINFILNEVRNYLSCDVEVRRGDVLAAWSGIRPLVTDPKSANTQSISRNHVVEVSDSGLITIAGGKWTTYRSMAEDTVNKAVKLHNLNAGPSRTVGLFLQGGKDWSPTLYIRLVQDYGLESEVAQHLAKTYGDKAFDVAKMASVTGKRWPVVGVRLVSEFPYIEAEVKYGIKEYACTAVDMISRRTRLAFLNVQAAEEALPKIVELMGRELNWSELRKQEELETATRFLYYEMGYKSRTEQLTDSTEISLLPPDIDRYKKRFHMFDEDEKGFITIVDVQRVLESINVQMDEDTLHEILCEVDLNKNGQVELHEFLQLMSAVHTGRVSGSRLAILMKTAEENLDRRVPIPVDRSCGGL

[6] = test system: mitochondrial membrane potential (ΔΨm); experiment: Membrane potential (ΔΨm) counterscreen with TMRM; settings: malate, nigericin
[7] = Table 3, 5 mM glutamate, 5 mM malate, 4 μM rotenone, compounds 2.5 μM, percent change from DMSO, positive control −100%, read-out: % Reduction in ROS production (IF)
[8] = Table 7, percent change in ROS from DMSO controls, read-out: IF
[9] = Table 8, percent change in ROS from DMSO controls
[10] = Table 9, percent change in ROS from DMSO controls
[11] = percent change in ROS from DMSO controls

T1 sequence (Q5XIH3 21-464 limits assumed, one chain of several): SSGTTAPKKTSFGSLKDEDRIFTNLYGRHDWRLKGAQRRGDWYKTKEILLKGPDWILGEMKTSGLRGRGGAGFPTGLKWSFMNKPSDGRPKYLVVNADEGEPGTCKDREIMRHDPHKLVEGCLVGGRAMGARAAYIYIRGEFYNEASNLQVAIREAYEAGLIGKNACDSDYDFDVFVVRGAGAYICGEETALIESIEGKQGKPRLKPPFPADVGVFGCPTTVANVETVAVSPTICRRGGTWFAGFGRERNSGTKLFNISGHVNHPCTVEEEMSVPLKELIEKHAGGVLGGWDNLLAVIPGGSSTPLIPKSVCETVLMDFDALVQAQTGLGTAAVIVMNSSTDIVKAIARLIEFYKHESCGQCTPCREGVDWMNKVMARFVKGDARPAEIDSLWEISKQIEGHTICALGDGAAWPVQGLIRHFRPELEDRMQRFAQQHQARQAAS
T3 sequence (Q920L2 35-656): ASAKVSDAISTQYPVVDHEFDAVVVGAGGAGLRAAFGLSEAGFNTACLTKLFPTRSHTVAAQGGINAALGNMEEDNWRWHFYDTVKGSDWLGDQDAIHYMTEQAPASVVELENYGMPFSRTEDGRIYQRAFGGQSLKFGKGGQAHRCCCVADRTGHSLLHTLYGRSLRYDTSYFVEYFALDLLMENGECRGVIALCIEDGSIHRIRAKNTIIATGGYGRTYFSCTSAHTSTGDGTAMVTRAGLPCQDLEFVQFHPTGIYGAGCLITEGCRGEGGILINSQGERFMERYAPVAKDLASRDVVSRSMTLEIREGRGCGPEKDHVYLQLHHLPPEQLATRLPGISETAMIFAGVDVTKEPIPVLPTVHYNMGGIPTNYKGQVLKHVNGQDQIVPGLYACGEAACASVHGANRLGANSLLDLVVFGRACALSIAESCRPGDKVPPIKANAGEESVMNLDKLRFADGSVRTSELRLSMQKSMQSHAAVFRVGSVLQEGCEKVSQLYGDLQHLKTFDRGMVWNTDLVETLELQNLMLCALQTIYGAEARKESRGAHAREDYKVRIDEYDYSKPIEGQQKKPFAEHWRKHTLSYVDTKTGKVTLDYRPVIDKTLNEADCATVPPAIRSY
T3 sequence (P21913 31-282): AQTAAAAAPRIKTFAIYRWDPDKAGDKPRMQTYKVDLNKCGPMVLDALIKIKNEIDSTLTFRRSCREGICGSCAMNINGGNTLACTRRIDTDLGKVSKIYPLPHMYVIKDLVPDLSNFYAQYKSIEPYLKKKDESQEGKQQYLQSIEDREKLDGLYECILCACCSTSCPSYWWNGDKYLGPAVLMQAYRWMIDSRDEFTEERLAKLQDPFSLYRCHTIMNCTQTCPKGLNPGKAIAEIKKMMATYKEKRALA
T3 sequence (Q641Z9 30-169 limits assumed): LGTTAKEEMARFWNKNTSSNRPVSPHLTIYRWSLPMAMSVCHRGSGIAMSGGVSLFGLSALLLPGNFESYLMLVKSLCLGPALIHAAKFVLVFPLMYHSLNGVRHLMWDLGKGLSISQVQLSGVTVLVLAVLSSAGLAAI
T3 sequence (Q6PCT8 57-159): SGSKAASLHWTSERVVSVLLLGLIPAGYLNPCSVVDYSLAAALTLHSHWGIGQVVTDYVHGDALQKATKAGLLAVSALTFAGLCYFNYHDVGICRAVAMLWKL

Row | Structure (SMILES) | IQ ([1]; Table 7) | IQ ([1]; Table 8) | IQ ([1]; Table 9) | inhibition at 2.5 µM [2, 7] [%] | inhibition at 2.5 µM [2, 8] [%] | IF [2, 9] | IF [2, 10] | inhibition at 2.5 µM ([3]; Table 7, read-out: IIIQO) [%] | IIIQO ([3]; Table 8) | inhibition at 2.5 µM ([3]; Table 9, read-out: IIIQo) [%] | inhibition at 2.5 µM [4, 11] [%] | SDH [4, 9] | SDH [4, 10] | inhibition [5, 11] [%] | GPDH [5, 9] | GPDH [5, 10] | ΔΨm ([6]; Table 8, glutamate) | ΔΨm ([6]; Table 9, glutamate) | further results
1 | CC1=CC(C)C(C2OCC(CN3CCCCC3)O2)C(C)C1 (stereo not drawn) [Compound 13] | 0.1 | 0.1 | 0.1 | 39 | 39 | −39.0 | −39.0 | 9 | −9.0 | 9 | 2.8 | −2.8 | −2.8 | 1.2 | −1.2 | −1.2 | −0.5 | −0.5 | 
2 | Cc1cc(C)c(OCC(O)CNC(C)(C)CC(C)(C)C)c(C)c1.Cl (stereo not drawn) [Compound 14] | −4.7 | −4.7 | −4.7 |  |  |  |  |  | −2.9 |  |  |  |  |  |  |  | −0.7 | −0.7 | % Reduction in ROS production (IF) [2]: −37.7%; IF [2]: −37.7; IIIQO ([3]; Table 7): −2.9; IIIQO ([3]; Table 9): −2.9; SDH [4]: −9.6; GPDH [5]: −3.9
3 | CCCN(CCO)Cc1ccc2c(c1)c1ccccc1n2CC [Compound 15] | −0.1 | −0.1 | −0.1 | 27.6 | 27.6 | −27.6 | −27.6 | 7.5 | −7.5 | 7.5 | 2.7 | −2.7 | −2.7 | 2.5 | −2.5 | −2.5 | −0.9 | −0.9 | 
4 | COc1ccccc1/C=C/c1nc(O)nc(O)c1[N+](=O)[O-] [Compound 16] | −5.4 | −5.4 | −5.4 | 26.7 | 26.7 | −26.7 | −26.7 | -6.6 | 6.6 | -6.6 | -4.2 | 4.2 | 4.2 | 0.6 | −0.6 | −0.6 | −0.3 | −0.3 | 
5 | COc1cccc(/C=C/C(=O)c2c(O)cc(C)oc2=O)c1O [Compound 17] | −7.4 | −7.4 | −7.4 | 26 | 26 | −26.0 | −26.0 | 6 | −6.0 | 6 | 3.4 | −3.4 | −3.4 | 3.6 | −3.6 | −3.6 | 0.3 | 0.3 | 
6 | O=C(Nc1ccccc1C(=O)O)c1ccccc1 [Compound 18] | −1.0 | −1.0 | −1.0 | 25.8 | 25.8 | −25.8 | −25.8 | -5.4 | 5.4 | -5.4 | 0.3 | −0.3 | −0.3 | 0.6 | −0.6 | −0.6 | −0.7 | −0.7 | 
